Data: patent US12583858B2 (Genentech, Inc., priority 2015, dated 2026)

Molecular target: T1, TDO2 (Homo sapiens, UniProt P48775)
T1 construct: decreased levels of NFK in SW48 cells (high TDO expressing cells)
Test: TDO2 cell assay (NFK GreenScreen, SW48 cells)
Assay type: cell-based
Settings: SW48 cells (high TDO expressing), 200 uM tryptophan, 24 hours; Table 3; read-out: TDO2 Cell Fluor EC50

T1 sequence (P48775 whole entry): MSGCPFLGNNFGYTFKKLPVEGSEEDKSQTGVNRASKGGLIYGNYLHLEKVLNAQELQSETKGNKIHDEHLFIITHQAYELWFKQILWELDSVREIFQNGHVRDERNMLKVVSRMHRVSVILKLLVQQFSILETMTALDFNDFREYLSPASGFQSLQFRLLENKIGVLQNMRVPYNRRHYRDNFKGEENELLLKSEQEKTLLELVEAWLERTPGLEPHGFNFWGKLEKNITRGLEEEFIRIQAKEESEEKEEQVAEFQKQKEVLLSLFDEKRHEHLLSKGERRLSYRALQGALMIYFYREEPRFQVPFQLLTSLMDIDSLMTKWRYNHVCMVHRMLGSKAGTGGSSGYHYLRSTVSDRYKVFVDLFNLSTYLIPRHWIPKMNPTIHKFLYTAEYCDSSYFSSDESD

| SMILES | EC50 [µM] |
| --- | --- |
| OC1c2cccn2CC[C@H]1C1c2ccccc2-c2cncn21 (stereo in doubt) [Example 136f, (7S,8S)-7-((R)-5H-imidazo[5,1-a]isoindol-5-yl)-5,6,7,8-tetrahydroindolizin-8-ol] | 0.36 |
| O[C@@H]1CC[C@@H]1[C@@H]1c2ccccc2-c2cncn21 [Example 01a, (1R,2R)-2-((R)-5H-imidazo[5,1-a]isoindol-5-yl)cyclobutan-1-ol] | 14 |
| O[C@H]1CC[C@H]1[C@H]1c2ccccc2-c2cncn21 [Example 01b, (1S,2S)-2-((S)-5H-imidazo[5,1-a]isoindol-5-yl)cyclobutan-1-ol] | 0.15 |
| O[C@H]1CC[C@@H]1[C@@H]1c2ccccc2-c2cncn21 [Example 01c, (1S,2R)-2-((R)-5H-imidazo[5,1-a]isoindol-5-yl)cyclobutan-1-ol] | > 25 |
| O[C@H]1CC[C@@H]1[C@H]1c2ccccc2-c2cncn21 [Example 01e, (1S,2R)-2-((S)-5H-imidazo[5,1-a]isoindol-5-yl)cyclobutan-1-ol] | 1.1 |
| O[C@@H]1CCC[C@@H]1[C@@H]1c2ccccc2-c2cncn21 [Example 02a, (1R,2R)-2-((R)-5H-imidazo[5,1-a]isoindol-5-yl)cyclopentan-1-ol] | 12 |
| O[C@H]1CCC[C@H]1[C@H]1c2ccccc2-c2cncn21 [Example 02b, (1S,2S)-2-((S)-5H-imidazo[5,1-a]isoindol-5-yl)cyclopentan-1-ol] | 0.12 |
| O[C@@H]1CCC[C@@H]1[C@H]1c2ccccc2-c2cncn21 [Example 02c, (1R,2R)-2-((S)-5H-imidazo[5,1-a]isoindol-5-yl)cyclopentan-1-ol] | 0.3 |
| O[C@H]1CCC[C@H]1[C@@H]1c2ccccc2-c2cncn21 [Example 02d, (1S,2S)-2-((R)-5H-imidazo[5,1-a]isoindol-5-yl)cyclopentan-1-ol] | 14 |
| O[C@H]1CCCC[C@H]1[C@H]1c2ccccc2-c2cncn21 [Example 03a, (1S,2S)-2-((S)-5H-imidazo[5,1-a]isoindol-5-yl)cyclohexan-1-ol] | 0.077 |
| O[C@@H]1CCCC[C@H]1[C@H]1c2ccccc2-c2cncn21 [Example 03b, (1R,2S)-2-((S)-5H-imidazo[5,1-a]isoindol-5-yl)cyclohexan-1-ol] | 0.083 |
| O[C@H]1CCCC[C@@H]1[C@@H]1c2ccccc2-c2cncn21 [Example 03g, (1S,2R)-2-((R)-5H-imidazo[5,1-a]isoindol-5-yl)cyclohexan-1-ol] | 7.6 |
| O[C@@H]1CCCC[C@@H]1[C@@H]1c2ccccc2-c2cncn21 [Example 03h, (1R,2R)-2-((R)-5H-imidazo[5,1-a]isoindol-5-yl)cyclohexan-1-ol] | 13 |
| O[C@H]1CCOC[C@@H]1[C@@H]1c2ccccc2-c2cncn21 [Example 05a, (3S,4S)-3-((R)-5H-imidazo[5,1-a]isoindol-5-yl)-tetrahydro-2H-pyran-4-ol] | 23 |
| O[C@@H]1CCOC[C@H]1[C@H]1c2ccccc2-c2cncn21 [Example 05b, (3R,4R)-3-((S)-5H-imidazo[5,1-a]isoindol-5-yl)-tetrahydro-2H-pyran-4-ol] | 0.21 |
| O[C@@H]1CCOC[C@H]1[C@@H]1c2ccccc2-c2cncn21 [Example 05c, (3R,4R)-3-((R)-5H-imidazo[5,1-a]isoindol-5-yl)-tetrahydro-2H-pyran-4-ol] | > 25 |
| O[C@H]1CCOC[C@@H]1[C@H]1c2ccccc2-c2cncn21 [Example 05d, (3S,4S)-3-((S)-5H-imidazo[5,1-a]isoindol-5-yl)-tetrahydro-2H-pyran-4-ol] | 1 |
| O[C@@H]1COCC[C@@H]1[C@@H]1c2ccccc2-c2cncn21 [Example 06e, (3S,4R)-4-((R)-5H-imidazo[5,1-a]isoindol-5-yl)tetrahydro-2H-pyran-3-ol] | > 25 |
| O[C@H]1COCC[C@H]1[C@H]1c2ccccc2-c2cncn21 [Example 06f, (3R,4S)-4-((S)-5H-imidazo[5,1-a]isoindol-5-yl)tetrahydro-2H-pyran-3-ol] | 0.9 |
| O[C@H]1c2cncn2CC[C@@H]1[C@@H]1c2ccccc2-c2cncn21 [Example 07g, (7R,8R)-7-((R)-5H-imidazo[5,1-a]isoindol-5-yl)-5,6,7,8-tetrahydroimidazo[1,5-a]pyridin-8-ol] | > 25 |
| O[C@@H]1c2ccncc2CC[C@H]1[C@H]1c2ccccc2-c2cncn21 [Example 08a, (5S,6S)-6-((S)-5H-imidazo[5,1-a]isoindol-5-yl)-5,6,7,8-tetrahydroisoquinolin-5-ol] | 0.048 |
| CC(C)(C)OC(=O)N1CC[C@@H](O)[C@H]([C@H]2c3ccccc3-c3cncn32)C1 [Example 11a, (3S,4R)-tert-butyl 4-hydroxy-3-((S)-5H-imidazo[5,1-a]isoindol-5-yl)piperidine-1-carboxylate] | 15 |
| CC(C)(C)OC(=O)N1CC[C@H](O)[C@@H]([C@@H]2c3ccccc3-c3cncn32)C1 [Example 11b, (3R,4S)-tert-butyl 4-hydroxy-3-((R)-5H-imidazo[5,1-a]isoindol-5-yl)piperidine-1-carboxylate] | > 25 |

| SMILES | EC50 [µM] |
| --- | --- |
| CCS(=O)(=O)N1CC[C@H]([C@@H]2c3ccccc3-c3cncn32)[C@@H](O)C1 [Example 16b, (3R,4R)-1-(ethylsulfonyl)-4-((R)-5H-imidazo[5,1-a]isoindol-5-yl)piperidin-3-ol] | > 25 |
| CCS(=O)(=O)N1CC[C@H]([C@H]2c3ccccc3-c3cncn32)[C@@H](O)C1 [Example 16c, (3R,4R)-1-(ethylsulfonyl)-4-((S)-5H-imidazo[5,1-a]isoindol-5-yl)piperidin-3-ol] | 5.7 |
| O[C@H]1CCC(F)(F)C[C@H]1[C@H]1c2ccccc2-c2cncn21 [Example 18a, (1S,2S)-4,4-difluoro-2-((S)-5H-imidazo[5,1-a]isoindol-5-yl)cyclohexan-1-ol] | 0.065 |
| O[C@@H]1CCC(F)(F)C[C@@H]1[C@@H]1c2ccccc2-c2cncn21 [Example 18e, (1R,2R)-4,4-difluoro-2-((R)-5H-imidazo[5,1-a]isoindol-5-yl)cyclohexan-1-ol] | 7.5 |
| CC1(C)C[C@H](O)[C@@H]1[C@H]1c2ccccc2-c2cncn21 [Example 22a, (1S,2S)-2-((S)-5H-imidazo[5,1-a]isoindol-5-yl)-3,3-dimethylcyclobutan-1-ol] | 0.06 |
| CC1(C)C[C@H](O)[C@H]1[C@@H]1c2ccccc2-c2cncn21 [Example 22c, (1S,2R)-2-((R)-5H-imidazo[5,1-a]isoindol-5-yl)-3,3-dimethylcyclobutan-1-ol] | > 25 |
| CC1(C)C[C@@H](O)[C@H]1[C@@H]1c2ccccc2-c2cncn21 [Example 22e, (1R,2R)-2-((R)-5H-imidazo[5,1-a]isoindol-5-yl)-3,3-dimethylcyclobutan-1-ol] | 3.5 |
| N#CCN1CC[C@H]([C@H]2c3ccccc3-c3cncn32)[C@@H](O)C1 [Example 27c, 2-((3R,4R)-3-hydroxy-4-((S)-5H-imidazo[5,1-a]isoindol-5-yl)piperidin-1-yl)acetonitrile] | > 25 |
| O[C@@H]1c2cccnc2CC[C@@H]1[C@@H]1c2ccccc2-c2cncn21 [Example 31a, (5S,6R)-6-((R)-5H-imidazo[5,1-a]isoindol-5-yl)-5,6,7,8-tetrahydroquinolin-5-ol] | > 25 |
| O[C@H]1c2cccnc2CC[C@@H]1[C@H]1c2ccccc2-c2cncn21 [Example 31b, (5R,6R)-6-((S)-5H-imidazo[5,1-a]isoindol-5-yl)-5,6,7,8-tetrahydroquinolin-5-ol] | 1.4 |
| O[C@@H]1c2cccnc2CC[C@H]1[C@@H]1c2ccccc2-c2cncn21 [Example 31g, (5S,6S)-6-((R)-5H-imidazo[5,1-a]isoindol-5-yl)-5,6,7,8-tetrahydroquinolin-5-ol] | 1.8 |
| O[C@H]1c2cccnc2CC[C@H]1[C@H]1c2ccccc2-c2cncn21 [Example 31h, (5R,6S)-6-((S)-5H-imidazo[5,1-a]isoindol-5-yl)-5,6,7,8-tetrahydroquinolin-5-ol] | 0.12 |
| N[C@@H]1COC[C@@H]1[C@@H]1c2ccccc2-c2cncn21 [Example 32a, (3S,4S)-4-[(5R)-5H-imidazo[4,3-a]isoindol-5-yl]oxolan-3-amine] | > 25 |
| N[C@H]1COC[C@H]1[C@H]1c2ccccc2-c2cncn21 [Example 32b, (3R,4R)-4-[(5S)-5H-imidazo[4,3-a]isoindol-5-yl]oxolan-3-amine] | 11 |
| N[C@@H]1COC[C@@H]1[C@H]1c2ccccc2-c2cncn21 [Example 32d, (3S,4S)-4-[(5S)-5H-imidazo[4,3-a]isoindol-5-yl]oxolan-3-amine] | > 25 |
| O[C@@H]1CCOC[C@H]1[C@@H]1c2ccc(F)cc2-c2cncn21 [Example 34d, (3R,4R)-3-((R)-8-fluoro-5H-imidazo[5,1-a]isoindol-5-yl)-tetrahydro-2H-pyran-4-ol] | 0.23 |
| NS(=O)(=O)N1CC[C@@H]([C@H]2c3ccccc3-c3cncn32)[C@H](O)C1 [Example 39a, (3S,4S)-3-hydroxy-4-((S)-5H-imidazo[5,1-a]isoindol-5-yl)piperidine-1-sulfonamide] | > 25 |
| C[C@@H](O)[C@@H]1c2ccccc2-c2cncn21 [Example 42a, (R)-1-((S)-5H-imidazo[5,1-a]isoindol-5-yl)ethan-1-ol] | > 25 |
| C[C@@H](O)[C@H]1c2ccccc2-c2cncn21 [Example 42b, (R)-1-((R)-5H-imidazo[5,1-a]isoindol-5-yl)ethan-1-ol] | 11.8 |
| C[C@H](O)[C@@H]1c2ccccc2-c2cncn21 [Example 42d, (S)-1-((S)-5H-imidazo[5,1-a]isoindol-5-yl)ethan-1-ol] | 23.7 |
| OC1(C2c3ccccc3-c3cncn32)CC(F)(F)C1 (stereo not drawn) [Example 50, 3,3-difluoro-1-(5H-imidazo[5,1-a]isoindol-5-yl)cyclobutan-1-ol] | 2.6 |
| O[C@@H]1c2ccnn2CC[C@@H]1[C@@H]1c2ccccc2-c2cncn21 [Example 56c, (4S,5R)-5-((R)-5H-imidazo[5,1-a]isoindol-5-yl)-4,5,6,7-tetrahydropyrazolo[1,5-a]pyridin-4-ol] | > 25 |
